“Also recorded” adds a separate entry of the source.
Tests used:
dynamin II = molecular target: T1, dynamin II (Rattus norvegicus, UniProt P39052); assay: Dynamin II GTPase assay ([γ-32P]GTP hydrolysis); assay type: biochemical; settings: GTPase activity, FIG. 1e
T1 construct: made in house; host or cells: insect cells
T1 sequence (P39052 1-870): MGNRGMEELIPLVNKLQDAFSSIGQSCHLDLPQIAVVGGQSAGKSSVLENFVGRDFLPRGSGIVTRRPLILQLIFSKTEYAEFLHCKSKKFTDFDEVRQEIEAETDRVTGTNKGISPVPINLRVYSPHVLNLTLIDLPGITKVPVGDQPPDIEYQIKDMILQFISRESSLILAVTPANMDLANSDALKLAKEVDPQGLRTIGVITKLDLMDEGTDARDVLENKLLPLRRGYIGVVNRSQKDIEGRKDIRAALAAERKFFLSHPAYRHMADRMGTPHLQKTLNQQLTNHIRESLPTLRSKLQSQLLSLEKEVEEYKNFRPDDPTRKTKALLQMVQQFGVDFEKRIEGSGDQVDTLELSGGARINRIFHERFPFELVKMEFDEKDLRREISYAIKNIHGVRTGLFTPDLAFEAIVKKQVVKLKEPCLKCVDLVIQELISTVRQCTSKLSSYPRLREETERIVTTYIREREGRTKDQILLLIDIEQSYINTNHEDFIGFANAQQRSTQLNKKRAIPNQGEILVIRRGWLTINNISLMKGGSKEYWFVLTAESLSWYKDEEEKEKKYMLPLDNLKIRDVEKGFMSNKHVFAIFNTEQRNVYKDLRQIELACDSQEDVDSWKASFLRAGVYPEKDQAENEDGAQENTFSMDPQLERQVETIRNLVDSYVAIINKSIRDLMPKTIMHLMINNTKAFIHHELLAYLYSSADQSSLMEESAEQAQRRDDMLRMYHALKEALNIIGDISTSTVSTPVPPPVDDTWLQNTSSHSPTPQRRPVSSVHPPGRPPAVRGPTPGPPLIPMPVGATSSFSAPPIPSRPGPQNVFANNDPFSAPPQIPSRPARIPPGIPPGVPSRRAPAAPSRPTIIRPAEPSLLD
Method: The plasmid for GST-Amph2-SH3 (muscle Amph2) (Butler et al., 1997) was provided by Pieto DeCamilli, Yale, Connecticut, USA, in pGEX2T vectors. The plasmid was grown in E. coli and the GST-Amph2-SH3 fusion protein was purified on glutathione (GSH)-Sepharose by elution with 10 mM reduced GSH in 20 mM Tris-HCl, pH 7.5, dialysed against the same buffer without GSH and stored at 4° C. Dynamin was purified from sheep brain by extraction from the peripheral membrane fraction of whole brain (Robinson et al., 1993) and affinity purification on GST-Amph2-SH3-sepharose as previously described (Marks and McMahon., 1998), yielding 8 mg protein from 250 g sheep brain. Recombinant dynamin II was expressed in insect cells and was a gift from Dr Sandra Schmid (Scripps, San Diego, Calif.). Recombinant dynamin I lacking the PH domain (dynamin PH, provided by Robin Scaife) was expressed in insect cells using baculoviral infection (Salim et al., 1996).
Dynamin GTPase activity was determined by hydrolysis of [ ? -^32P]GTP by a method modified from that described previously (Robinson et al., 1993). […] Dynamin activity was measured as either basal or phospholipid-stimulated with the addition of 5 μg/ml L-phosphatidylserine. […] After centrifuging for 5 min (13,000 rpm at room temperature), 200 μl of each supernatant was counted in a -counter for the release of ^32Pi from [ ? -^32P]-GTP.

Rab3A = molecular target: T2, Rab3A (Homo sapiens, UniProt P20336); assay: [α-32P]-GTP binding to small G protein Rab3A; settings: data not shown
T2 sequence (P20336 1-220): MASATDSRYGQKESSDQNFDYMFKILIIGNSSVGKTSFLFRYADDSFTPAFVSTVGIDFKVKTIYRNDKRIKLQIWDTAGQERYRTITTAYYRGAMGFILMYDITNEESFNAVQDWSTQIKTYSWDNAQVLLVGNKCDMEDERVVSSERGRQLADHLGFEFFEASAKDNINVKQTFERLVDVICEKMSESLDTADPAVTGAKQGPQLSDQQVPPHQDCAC
Method: (§1) Competition of these drugs with GTP for the active site of 4 small G proteins (Rab3A, Ras, Arf2, RalA) was also tested.

Arf2 = assay: [α-32P]-GTP binding to small G protein Arf2; settings: data not shown
Method: as §1

Swiss 3T3 cells = assay: Texas Red-transferrin uptake in Swiss 3T3 cells; assay type: cell-based; settings: drug added 15 or 60 minutes before Tf-TxR
Method: (§2) Transferrin (Tf) uptake was analysed in Swiss 3T3 and HER14 cells based on methods previously described (van der Bliek et al., 1993). Briefly, cells were plated to 60% confluency in DMEM medium plus 10% foetal calf serum after which the cells were incubated overnight (8-10 hours) in DMEM minus foetal calf serum. Texas red-transferrin (Tf-TxR, Molecular Probes, Oregon) was added to a final concentration of 5 μg/ml and the cells incubated at 37° C. for 10 minutes. Cell surface staining was removed by incubating the cells in an ice cold acid wash solution (0.2 M acetic acid +0.5 M NaCl, pH 2.8) for 15 minutes. Cells were immediately fixed with 4% paraformaldehyde for 10 minutes then washed 3 times with PBS. Nuclei were stained using DAPI (Molecular Probes, Oregon). Slides were mounted using DABCO and the fluorescence was monitored using a Leica DMLB bright field microscope and SPOT digital camera.

HER14 cells = assay: Texas Red-transferrin uptake in HER14 cells; assay type: cell-based; settings: drug added 15 or 60 minutes before Tf-TxR
Method: as §2

dynamin I = dynamin I (Ovis aries, UniProt A0ACI6NZN1); assay: Phospholipid binding and helix assembly (sedimentation assay); settings: 10 or 100 μM, PS liposomes
Sequence of dynamin I (A0ACI6NZN1 entry or part of it): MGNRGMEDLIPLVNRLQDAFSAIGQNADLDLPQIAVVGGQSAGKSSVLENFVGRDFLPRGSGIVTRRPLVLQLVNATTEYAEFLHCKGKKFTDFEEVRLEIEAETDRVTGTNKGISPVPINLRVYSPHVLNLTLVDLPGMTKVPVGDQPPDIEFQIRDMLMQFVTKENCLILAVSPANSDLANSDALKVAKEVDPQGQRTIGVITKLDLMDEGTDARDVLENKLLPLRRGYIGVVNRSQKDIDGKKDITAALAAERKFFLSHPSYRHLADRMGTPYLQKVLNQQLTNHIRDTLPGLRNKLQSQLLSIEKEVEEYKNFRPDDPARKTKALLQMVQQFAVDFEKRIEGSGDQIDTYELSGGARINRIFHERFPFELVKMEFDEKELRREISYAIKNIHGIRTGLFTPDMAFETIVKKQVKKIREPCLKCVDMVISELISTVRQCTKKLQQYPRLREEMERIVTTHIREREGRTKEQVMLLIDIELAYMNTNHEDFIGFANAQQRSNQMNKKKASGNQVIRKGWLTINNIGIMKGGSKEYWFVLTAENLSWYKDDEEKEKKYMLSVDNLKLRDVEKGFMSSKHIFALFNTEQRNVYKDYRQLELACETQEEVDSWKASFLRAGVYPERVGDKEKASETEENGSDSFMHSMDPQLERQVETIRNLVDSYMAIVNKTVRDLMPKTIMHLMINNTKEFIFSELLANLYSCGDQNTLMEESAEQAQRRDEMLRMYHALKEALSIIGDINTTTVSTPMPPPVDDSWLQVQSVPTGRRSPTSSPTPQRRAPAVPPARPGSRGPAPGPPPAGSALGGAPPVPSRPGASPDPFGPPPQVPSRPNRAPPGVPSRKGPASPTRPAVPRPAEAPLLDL

Question: With `N#C/C(=C\c1ccc(O)c(O)c1)C(=O)NCCCNC(=O)/C(C#N)=C/c1ccc(O)c(O)c1` [bis-tyrphostin] as the molecule, how does the IC50 (dynamin II) read?
Answer: Its IC50 is 500 nM.

Question: What about the “effect on [α-32P]-GTP binding to Rab3A” value (Rab3A) of the same molecule?
Answer: Its value is “neither drug affected”.

Question: What about the “effect on [α-32P]-GTP binding to Arf2” value (Arf2) of the same molecule?
Answer: Its value is “neither drug affected”.

Question: What about the “internalisation of texas-red labelled transferrin into Swiss 3T3 cells” value (Swiss 3T3 cells) of the same molecule?
Answer: Its value is “very large decrease in transferrin staining; also recorded: inhibited”.

Question: What about the “internalisation of texas-red labelled transferrin into HER14 cells” value (HER14 cells) of the same molecule?
Answer: Its value is “very large decrease in transferrin staining; also recorded: inhibited”.

Question: And the “phospholipid binding and dynamin helix assembly” value (dynamin I)?
Answer: Its value is “completely unaffected; also recorded: does not block dynamin binding to lipid”.

Reference: US20070225363A1, “Methods and Agents for Inhibiting Dynamin-Dependent Endocytosis” (the University of Newcastle Research Associates Ltd., priority 2003, published 2007)
